Results published in EP3727043B1 (Golden Gait Biotech, S.L., priority 2017, dated 2019).
Where two headings read alike, the source gives them in different places.

How the values were obtained:
[1] = test system: rats with a unilateral 6-hydroxydopamine lesion; experiment: LIDs in rats with a unilateral 6-hydroxydopamine lesion; format: in vivo; conditions: parkinsonian rat model of LIDs
[2] = cited from earlier work
[3] = cited from earlier work; remark: listed apart in the source
[4] = target: α7 nAChR (Homo sapiens, UniProt P36544); conditions: nAChR subtype: α7; cited from earlier work
[5] = target: β2* nAChR (Homo sapiens, UniProt P17787); conditions: nAChR subtype: β2; cited from earlier work
[6] = test system: patients with idiopathic PD and levodopa induced dyskinesias (LIDs)
Description: At the time the study was performed (2009), there was no FDA accepted instrument for measuring treatment efficacy for LIDs. Therefore, several secondary objectives were utilized to assess efficacy including the Unified Dyskinesia Rating Scale (UDysRS).
A total of 65 male and female subjects with idiopathic PD with LIDs were randomized in the study. The study consisted of 4 phases (FIG. 6A): screening phase (up to 3 weeks), double-blind treatment phase (10 weeks), taper phase (2 weeks), and follow-up phase (2 weeks). The approximate duration of the study for each subject was 17 weeks. […] During the double-blind treatment phase, dosing was begun at Visit 0 at 1 mg every 6 hours (total daily dose [TDD] = 4 mg/day) and escalated upwards at 2-week intervals as follows: 2 mg every 6 hours (TDD = 8 mg/day) at Visit 1 (Week 2); 4 mg every 6 hours (TDD = 16 mg/day) at Visit 2 (Week 4); 6 mg every 6 hours (TDD = 24 mg/day) at Visit 3 (Week 6). Subjects were maintained on 24 mg/day for 4 weeks. The subsequent taper phase (2 weeks total), beginning at Visit 4 (Week 10), consisted of 9 days of drug taper and 5 days off drug prior to Visit 5 (final safety visit). […] Ondansetron was provided by the sponsor and dispensed with each dose escalation step with instructions to use it for nausea and vomiting only during the first 4 days following dose initiation or escalation. […] No other dose down-titration was allowed. Table 5. Dose Escalation Schedule
A total of 65 patients with idiopathic PD and levodopa induced dyskinesias (LIDs) were randomized. Patients were required to have a diagnosis of idiopathic PD and be within a Hoehn & Yahr Stage II - IV while in a peak "ON" state(levodopa in a therapeutic range). They had to have moderate to severely disabling LIDs for at least 25% of the waking day, as determined by Questions 32 and 33 in Part II of the UPDRS and a Mini-Mental State Examination (MMSE) score of ≥26. Patients with atypical Parkinson disorders, prior deep brain stimulation (DBS), unstable angina, a history of ventricular arrhythmias, or active peptic ulcer or a history of schizophrenia, schizoaffective disorder, or bipolar disease were excluded. Patients who actively smoked were also excluded. Table 9: Demographics
The drug, or a placebo identical in appearance and packaging, was administered orally 4 times a day in a blinded fashion. Patients were examined while in an "ON" state, when levodopa was in a therapeutic range. During the treatment phase, dosing was begun at 1 mg every 6 hours (total daily dose=4 mg/day) and escalated upwards at 2-week intervals as follows: 2 mg every 6 hours at Visit 1; 4 mg every 6 hours at Visit 2; 6 mg every 6 hours at Visit 3. Patients were maintained on 24 mg/day for 4 weeks. All patients, study site personnel, raters and the sponsor were blinded to treatment assignment.
The original UPDRS scale was used. […] In the UPDRS Part II, Question 13 is on Falling unrelated to Freezing. […] In Part II, Question 14 is on Freezing when Walking. This is a 5-point item and has two variables freezing and falls. […] Questions 13 and 14 were compared separately (Table 11). […] Table 10: UPDRS Part II (ADL), UPDRS Part III (Motor Examination)
LIDs were assessed by the UDysRS, the main measure of LIDs (Table 12). […] The study was conducted in accordance with the Declaration of Helsinki and Good Clinical Practice Guidelines. All sites received approval from an institutional review board and written informed consent was obtained from each patient prior to participation. Table 12. Unified Dyskinesia Rating Scale (UDysRS)
All hypotheses were tested using 2-sided tests with alpha set at the 0.050 level of significance. In general, efficacy data were summarized by treatment group, and safety data were summarized by treatment group and overall.

[7] = test system: α4β2* nAChR knockout mice
Text: Multiple receptors exist throughout the body with α1β1*, α3β4* and α7 nAChRs being the major subtypes in the peripheral nervous system and α4β2*, α6β2* and α7 nAChRs the primary ones in the brain. The *asterisk denotes the presence of other nAChR subunits in the receptor.

[8] = test system: patients with idiopathic PD and levodopa induced dyskinesias (LIDs); conditions: for worsening of Parkinson symptoms (UPDRS Part III, Hoehn and Yahr scales): during the study
Description: Efficacy was measured with the Unified Dyskinesia Rating Scale (UDysRS), a semi- quantitative assessment, FDA-validated instrument to assess gait, balance and dyskinesia in PD. […] Dosing was begun at 1 mg every 6 hours to a final dose of 24 mg per day.
All hypotheses were tested using 2-sided tests with alpha set at the 0.050 level of significance. In general, efficacy data were summarized by treatment group, and safety data were summarized by treatment group and overall. In all analyses, assumptions such as normality and homogeneity of variance were examined prior to conducting the proposed parametric statistical procedures. Categorical variables were analyzed by Fisher's exact 2- tailed test and continuous variables were tested under 2-sample t-tests. The equality of variances was examined using an F-test before applying the 2-sample t-test.

[9] = test system: rats and mice; conditions: oral application, injection and slow-release minipumps
[10] = in vivo; cited from earlier work
[11] = Phase 2 data used for sample size calculation

β2* nAChR, sequence (P17787 26-502): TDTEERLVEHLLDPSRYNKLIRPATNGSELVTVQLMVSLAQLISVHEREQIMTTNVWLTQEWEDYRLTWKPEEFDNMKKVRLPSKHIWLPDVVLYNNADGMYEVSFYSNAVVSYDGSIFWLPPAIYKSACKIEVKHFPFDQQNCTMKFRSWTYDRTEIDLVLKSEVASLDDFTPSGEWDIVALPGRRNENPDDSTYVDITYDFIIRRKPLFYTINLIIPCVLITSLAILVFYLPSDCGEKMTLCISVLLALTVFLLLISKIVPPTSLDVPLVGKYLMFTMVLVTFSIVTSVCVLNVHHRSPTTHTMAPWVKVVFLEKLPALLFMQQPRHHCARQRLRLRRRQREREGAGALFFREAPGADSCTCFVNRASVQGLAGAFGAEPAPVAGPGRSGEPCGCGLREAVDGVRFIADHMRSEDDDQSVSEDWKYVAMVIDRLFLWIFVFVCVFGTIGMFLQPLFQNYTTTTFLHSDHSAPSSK
α7 nAChR, sequence (P36544 23-502): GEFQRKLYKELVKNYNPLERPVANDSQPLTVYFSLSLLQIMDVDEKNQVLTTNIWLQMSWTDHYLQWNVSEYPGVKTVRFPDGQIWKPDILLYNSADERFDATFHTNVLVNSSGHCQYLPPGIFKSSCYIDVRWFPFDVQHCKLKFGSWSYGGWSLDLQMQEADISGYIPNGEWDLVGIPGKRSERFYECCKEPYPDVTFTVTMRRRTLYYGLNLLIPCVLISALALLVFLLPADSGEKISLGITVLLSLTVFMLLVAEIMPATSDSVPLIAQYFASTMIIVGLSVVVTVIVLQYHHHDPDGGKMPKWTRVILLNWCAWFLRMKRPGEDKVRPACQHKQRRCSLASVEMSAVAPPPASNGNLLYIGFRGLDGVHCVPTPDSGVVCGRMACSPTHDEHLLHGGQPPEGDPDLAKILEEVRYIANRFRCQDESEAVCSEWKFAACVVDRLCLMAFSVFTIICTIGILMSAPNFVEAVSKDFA

c1cncc(OC[C@@H]2CCN2)c1 [A-85380]
reduction of LIDs [1]: reduced LIDs to varying extents

CN[C@@H](C)C/C=C/c1cncc(OC(C)C)c1 [TC-2696]
reduction of LIDs [1]: reduced LIDs to varying extents

C[C@@](Cc1ccc(O)c(O)c1)(NN)C(=O)O [Carbidopa, (-)-L-α-hydrazino-α-methyl-β-(3,4-dihydroxybenzene) propanoic acid monohydrate]
solubility in water [2]: slightly soluble in water
reduction of the amount of levodopa required to produce a given response ([3]; in vivo): about 75%

c1cc2cc(-c3ccc(O[C@H]4CN5CCC4CC5)nn3)ccc2[nH]1 [ABT-107]
Ki [4]: 0.5 nM

Clc1cc(N2C[C@@H]3CN[C@@H]3C2)cnc1Cl [ABT-894]
Ki [5]: 0.3 nM

N[C@@H](Cc1ccc(O)c(O)c1)C(=O)O [Levodopa, (S)-2-amino-3-(3,4-dihydroxyphenyl) propanoic acid]
solubility in water [2]: slightly soluble in water
plasma half-life of levodopa ([3]; without carbidopa): 50 min

Cc1ccc(-c2ccc(OC3CN4CCC3CC4)cn2)cc1 (centres unmarked) [AQW051]
Ki [4]: 27 nM

OCCCCC#Cc1cncc(OC[C@@H]2CCN2)c1 [sazetidine]
reduction of LIDs [1]: reduced LIDs to varying extents

Cc1ncccc1OC[C@@H]1CCCN1 [ABT-089]
Ki [5]: 17 nM

c1cnc2cc3c(cc2n1)[C@@H]1CNC[C@H]3C1 [Varenicline]
reduction of LIDs [1]: reduced LIDs to varying extents

O=C(c1ccc(Cl)o1)N1CC2CNCC2C1 (centres unmarked) [AZD 1446]
Ki [5]: 30 nM

CN1CCC[C@H]1c1cccnc1 [Nicotine, (S)-3-[1-methylpyrrolidin-2-yl]pyridine, reference compound]
UDysRS part III, Week 10 result; change from baseline, mean [6, 11]: 5.2
UDysRS walking, Week 10 result; change from baseline, mean [6, 11]: 4.4
PGI-C responders (subjects with a score of 1, 2, or 3) ([6]; Visit 4 (Week 10), 21 responders, p = 0.0048 vs placebo): 77.8%
number of LF-ADL responders (subjects with ≥25% reduction from baseline), difference between treatment groups ([6]; Visit 4 (Week 10), p = 0.0453): statistically significant difference
Gait-subtest of the UDysRS versus placebo ([6]; human, in vivo): statistically superior to placebo
patient- and physician-rated assessments of efficacy versus placebo ([6]; human, in vivo): superior to placebo
antidyskinetic effect [7]: did not exert an antidyskinetic effect
worsening of Parkinson symptoms (UPDRS Part III, Hoehn and Yahr scales) [8]: no worsening of Parkinsonian symptoms
worsening of Parkinson symptoms (UPDRS Part III, Hoehn and Yahr scales) ([8]; listed as nicotine): did not cause any worsening of the PD symptoms
subjects who completed the study ([8]; of 35 randomized): 25 subjects
subjects who withdrew because of AEs ([8]; of 35 randomized): 6 subjects
subjects who withdrew because of protocol violations ([8]; of 35 randomized): 2 subjects
subjects who withdrew from the study ([8]; of 35 randomized): 10 subjects
subjects who withdrew because of AEs ([8]; of 35 randomized, listed as nicotine): Six
reduction of LIDs [9]: reduced LIDs
oral bioavailability [10]: approximately 30%
